Like-named read-outs stand apart in the source and are kept apart here.
Columns and labels:
[1] = target: T1, Full-length recombinant rat receptor (vitamin D receptor) (Rattus norvegicus, UniProt P13053); conditions: comparison compound from an earlier filing; read-out: Competitive VDR Binding, Ki; cited from earlier work
T1 construct: Full-length recombinant rat receptor was expressed in E. coli; histidine tag (C); made in house; host or cells: E. coli BL21(DE3) Codon Plus RIL
T1 sequence (P13053 1-423): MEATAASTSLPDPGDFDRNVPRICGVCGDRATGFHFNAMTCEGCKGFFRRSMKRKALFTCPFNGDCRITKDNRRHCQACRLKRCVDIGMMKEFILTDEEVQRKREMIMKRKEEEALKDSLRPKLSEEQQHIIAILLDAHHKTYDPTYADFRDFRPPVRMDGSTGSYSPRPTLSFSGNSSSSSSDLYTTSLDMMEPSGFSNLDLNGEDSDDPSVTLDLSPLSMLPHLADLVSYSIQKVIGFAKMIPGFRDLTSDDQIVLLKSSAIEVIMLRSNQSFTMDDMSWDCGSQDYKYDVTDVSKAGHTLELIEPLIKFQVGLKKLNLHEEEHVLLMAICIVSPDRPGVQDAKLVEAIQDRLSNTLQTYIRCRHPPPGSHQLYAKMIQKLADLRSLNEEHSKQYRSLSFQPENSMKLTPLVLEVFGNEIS

[2] = target: T1, Full-length recombinant rat receptor (vitamin D receptor); assay: Vitamin D receptor competitive binding; conditions: recombinant rat VDR, 3H-1,25(OH)2D3 1 nM
Experimental: Full-length recombinant rat receptor was expressed in E. coli BL21(DE3) Codon Plus RIL cells and purified to homogeneity using two different column chromatography systems. The first system was a nickel affinity resin that utilizes the C-terminal histidine tag on this protein. The protein that was eluted from this resin was further purified using ion exchange chromatography (S-Sepharose Fast Flow). Aliquots of the purified protein were quick frozen in liquid nitrogen and stored at −80° C. until use. For use in binding assays, the protein was diluted in TEDK50 (50 mM Tris, 1.5 mM EDTA, pH 7.4, 5 mM DTT, 150 mM KCl) with 0.1% Chaps detergent. The receptor protein and ligand concentration was optimized such that no more than 20% of the added radiolabeled ligand was bound to the receptor.
Unlabeled ligands were dissolved in ethanol and the concentrations determined using UV spectrophotometry (1,25(OH)2D3: molar extinction coefficient=18,200 and λmax=265 nm; Analogs: molar extinction coefficient=42,000 and λmax=252 nm). Radiolabeled ligand (^3H-1,25(OH)2D3, ˜159 Ci/mmole) was added in ethanol at a final concentration of 1 nM.
Radiolabeled and unlabeled ligands were added to 100 mcl of the diluted protein at a final ethanol concentration of ≦10%, mixed and incubated overnight on ice to reach binding equilibrium. […] Total binding was determined from the tubes containing only radiolabeled ligand.

[3] = tested on: Human promyelocytic leukemia (HL60) cells; assay: HL-60 differentiation (nitro blue tetrazolium reduction); assay type: cell-based; conditions: for HL-60 Differentiation (Relative Activity): (value for native hormone)/(value for working example), same assay; for EC50: Homo sapiens, 96 h, HL-60 cells into monocytes, 4 days
Experimental: The study drugs were dissolved in ethanol and the concentrations determined using UV spectrophotometry. Serial dilutions were prepared so that a range of drug concentrations could be tested without changing the final concentration of ethanol (≦0.2%) present in the cell cultures.
Human promyelocytic leukemia (HL60) cells were grown in RPMI-1640 medium containing 10% fetal bovine serum. The cells were incubated at 37° C. in the presence of 5% CO2.
HL60 cells were plated at 1.2×10^5 cells/ml. Eighteen hours after plating, cells in duplicate were treated with the drug. Four days later, the cells were harvested and a nitro blue tetrazolium reduction assay was performed (Collins et al., 1979; J. Exp. Med. 149:969-974). The percentage of differentiated cells was determined by counting a total of 200 cells and recording the number that contained intracellular black-blue formazan deposits. Verification of differentiation to monocytic cells was determined by measuring phagocytic activity (data not shown).

[4] = tested on: 24-hydroxylase (24OHase) gene promoter; assay: In vitro transcription assay (24OHase promoter-luciferase in ROS 17/2.8 cells); assay type: cell-based; conditions: for 24OHase Transcription (Relative Activity): (value for native hormone)/(value for working example), same assay
Experimental: Transcription activity was measured in ROS 17/2.8 (bone) cells that were stably transfected with a 24-hydroxylase (24OHase) gene promoter upstream of a luciferase reporter gene (Arbour et al., 1998). Cells were given a range of doses. Sixteen hours after dosing, the cells were harvested and luciferase activities were measured using a luminometer. RLU=relative luciferase units.

[5] = tested on: Sprague-Dawley rats; assay: Intestinal calcium transport (everted gut sac); assay type: in vivo, rat; conditions: for serosal calcium to mucosal calcium ratio: rat, at 780 pM (so in the source)
Experimental: Male, weanling Sprague-Dawley rats were placed on Diet 11 (0.47% Ca) diet+AEK oil for one week followed by Diet 11 (0.02% Ca)+AEK oil for 3 weeks. The rats were then switched to a diet containing 0.47% Ca for one week followed by two weeks on a diet containing 0.02% Ca. Dose administration began during the last week on 0.02% calcium diet. Four consecutive intraperitoneal doses were given approximately 24 hours apart. Twenty-four hours after the last dose, blood was collected from the severed neck and the concentration of serum calcium determined as a measure of bone calcium mobilization. The first 10 cm of the intestine was also collected for intestinal calcium transport analysis using the everted gut sac method.

[6] = ROS 17/2.8 cells, luciferase, 16 h, read-out: 24OHase Transcription, EC50

Ki [2]	EC50 [3]	EC50 [4, 6]	Compound	Ki [1]	HL-60 Differentiation (Relative Activity) [3]	24OHase Transcription (Relative Activity) [4]	serosal calcium to mucosal calcium ratio [5]	other results
–	–	–	C=C1C(O)CC(=CC=C2CCCC3(C)C2CCC3C(C)CCC)CC1O [2MtrisP, 2-methylene-19-nor-(20S)-1α-hydroxytrishomopregnacalciferol]	0.075 nM	–	–	–	–
–	–	–	C=C1C(O)CC(=CC=C2CCCC3(C)C2CCC3C(C)CC)CC1O [(20R)-2MbisP, 2-methylene-19-nor-(20R)-1α-hydroxybishomopregnacalciferol]	0.078 nM	–	–	–	–
4 nM	6000 nM	100 nM	C=C1[C@H](O)CC(=C/C=C2\CCC[C@]3(C)[C@@H]([C@H](C)CC(C)C)CC[C@@H]23)C[C@H]1O [RMB, (20R)-2-methylene-19,23,24-trinor-1α-hydroxyvitamin D3]	–	0.0005	0.003	0.9	less active than (20R)-2MbisP in differentiation of HL-60 cells ([3]; ratio of relative activities 0.18/0.0005): approximately 360 times; less active than (20R)-2MbisP in hydroxylase transcription ([4]; ratio of relative activities 0.05/0.003): more than 16 times
0.4 nM	40 nM	8 nM	C=C1[C@H](O)CC(=C/C=C2\CCC[C@]3(C)[C@@H]([C@@H](C)CC(C)C)CC[C@@H]23)C[C@H]1O [SMB, (20S)-2-methylene-19,23,24-trinor-1α-hydroxyvitamin D3]	–	0.08	0.04	–	less active than 2MtrisP in HL-60 differentiation, normalized against native hormone ([3]; ratio of relative activities 1.2/0.08): ≈ 15; EC50 ([4]; FIG. 3, read-out: EC50 with respect to increasing transcription of the 24-hydroxylase gene): 8000 nM; intestinal calcium transport activity lower than that of the native hormone ([5]; 7020 pmol SMB similar to 87 pmol native hormone): approximately 80 times
–	–	–	C=C1/C(=C\C=C2/CCC[C@]3(C)[C@@H]([C@H](C)CCCC(C)(C)O)CC[C@@H]23)C[C@@H](O)C[C@@H]1O [native hormone, 1α,25-dihydroxyvitamin D3, reference compound]	–	–	–	4.1	–

Source: patent publication US20140011778A1, “2-METHYLENE-19,23,24-TRINOR-1ALPHA-HYDROXYVITAMIN D3” (Wisconsin Alumni Research Foundation, priority 2011, published 2014)
